Some results are limits rather than exact numbers.

Data set [1] relates to reserpine-induced ulcer. Nature of the data set: Reserpine-induced ulcer (Preventive test). Format: in vivo, rat (male SD rats). Conditions: Table 1; rat, 100 mg/kg oral, 30 min before reserpine 15 mg/kg i.p.; evaluated at 18 h; read-out: Preventive effect (preventive ratio). Here is the method:
(§1) In the case of reserpine-induced ulcer, the assay was performed according to the description in "Arch. Int. Pharmacodym. Ther. 147,113 (1964)", and in the case of acetic acid-induced ulcer, the assay was performed according to the method described in "Jap. J. Pharmac. 19,418 (1969)", by inducing experimental ulcer in rat and evaluating the effect thereon of the compounds tested.
Groups of rats, each consisting of 6 male SD rats weighing 150-200 g were used. After 24 hours' fasting, a sample compound was orally administered to the rat at the dose of 100 mg/kg body weight, and 30 minutes after the administration, reserpine was intraperitoneally injected at the dose of 15 mg/kg body weight. Eighteen hours after the administration, the rats were killed with chloroform. The stomach was taken out, and severity of the hemorrhaging lesion was evaluated according to the method as above ("Arch. Int. Pharmacodym. Ther. 147,113 (1964)).
The preventive ratio was calculated using the following equation, [formula] wherein the control animals were intraperitoneally given reserpine only, at the dose of 15 mg/kg body weight.

The test system of data set [2] is acetic acid-induced ulcer. Nature of the data set: Acetic acid-induced ulcer (Curative test). It is filed as in vivo, rat (male SD rats). The conditions noted are these: Table 2; rat, 0.05 ml of 15% acetic acid underneath the serosa; lesion area on 14th day. The protocol: as §1
Groups of rats, each consisting of 6 male SD rats weighing 150-200 g were used. The stomach of ether-anesthesized rat was exposed and while taking acre not to injure blood vessels, 0.05 ml of 15% aqueous acetic acid solution was injected underneath the serosa. On the 14th day, the rats were killed with chloroform, the stomach taken out and the area of the infected lesion measured.
The curative ratio was calculated using the above equation: [formula]

Data set [3] is described as follows: acute toxicity (LD50), intraperitoneal route in mice. It is filed as in vivo. The conditions noted are these: mouse, in vivo, ip.
In data set [4] the test system is mice. The data set is described as above. Format: in vivo.

The LD50 is the dose expected to kill half of the subjects tested. The low end stands for a more toxic substance, the high end for a less toxic substance. As for `CC(C)=CCCC(C)=CCCC(C)=CCCC(=O)Oc1c(C)c(C)c2c(c1C)CCC(C)(CCCC(C)CCCC(C)CCCC(C)C)O2` (stereo not drawn) [α-Tocopheryl farnesylacetate], the inhibition in vivo at 100 mg/kg in data set [1] was in the range of 40 to 60%. For the same molecule, in data set [2], the “Curative effect (curative ratio)” value is “++ (25%-40%)”. Further, the LD50 in data set [3] (Table 2) and in data set [4] (Table 1) was over 4000 mg/kg each time.

`CC(C)=CCCC(C)=CCCC(C)=CCCC(C)=CCCC(C)=CCCC(C)=CCCC(C)=CCCC(C)=CCCC(C)=CCCC(C)=CCCC(=O)OCC=C(C)CCCC(C)CCCC(C)CCCC(C)C` (stereo not drawn) [Phytyl decaprenylacetate]: the inhibition in vivo at 100 mg/kg in data set [1] was in the range of 10 to 40%. Moreover, the “Curative effect (curative ratio)” value in data set [2] was “+ (10%-25%)”. Moreover, the LD50 in data set [3] (Table 2) and in data set [4] (Table 1) was over 4000 mg/kg in each case.

As to `CCCCCCCC/C=C\CCCCCCCC(=O)OC/C=C(\C)CCC[C@H](C)CCC[C@H](C)CCCC(C)C` [Phytyl oleate], the inhibition in vivo at 100 mg/kg in data set [1] is over 60%. For the same molecule, the “Curative effect (curative ratio)” value in data set [2] is “+++ (40%-)”. Further, the LD50 in data set [3] (Table 2) and in data set [4] (Table 1) was over 4000 mg/kg each time.

For the molecule `C=CC(C)(O)CCC=C(C)CCC=C(C)CCC=C(C)CCC=C(C)CCC=C(C)CCC=C(C)CCC=C(C)CCC=C(C)CCC=C(C)C` (stereo not drawn) [Isodecaprenol], the inhibition in vivo at 100 mg/kg in data set [1] lay within 10 to 40%. The “Curative effect (curative ratio)” value in data set [2] is “++ (25%-40%)”. Moreover, the LD50 in data set [3] (Table 1) and in data set [4] (Table 2) was over 4000 mg/kg in each case.

Take `CC(=O)OCC=C(C)CCC=C(C)CCC=C(C)CCC=C(C)CCC=C(C)CCC=C(C)CCC=C(C)CCC=C(C)CCC=C(C)CCC=C(C)C` [Decaprenyl acetate]: in data set [1], the inhibition in vivo at 100 mg/kg was in the range of 40 to 60%. Further, in data set [2], the “Curative effect (curative ratio)” value is reported as “+ (10%-25%)”. Besides, the median lethal dose (LD50) in data set [3] (Table 2) and in data set [4] (Table 1) was over 5000 mg/kg in each case.

Consider `CCCCCCCC/C=C\CCCCCCCC(=O)OCC=C(C)CCC=C(C)CCC=C(C)CCC=C(C)CCC=C(C)CCC=C(C)CCC=C(C)CCC=C(C)CCC=C(C)C` [Solanesyl oleate], for which the inhibition in vivo at 100 mg/kg in data set [1] was 10 to 40%. The “Curative effect (curative ratio)” value in data set [2] is given as “++ (25%-40%)”. The median lethal dose (LD50) in data set [3] (Table 2) and in data set [4] (Table 1) was over 4000 mg/kg in each case.

Take `CC(=O)OC/C=C(\C)CCC[C@H](C)CCC[C@H](C)CCCC(C)C` [Phytyl acetate]: the inhibition in vivo at 100 mg/kg in data set [1] lay within 40 to 60%. The “Curative effect (curative ratio)” value in data set [2] is “+ (10%-25%)”. The LD50 in data set [3] (Table 2) and in data set [4] (Table 1) was over 5000 mg/kg in each case.

In the case of `CC(C)=CCCC(C)=CCCC(C)=CCCC(C)=CCCC(C)=CCCC(C)=CCCC(C)=CCCC(C)=CCCC(C)=CCCC(C)=CCOC(=O)CCC=C(C)CCCC(C)CCCC(C)CCCC(C)C` (stereo not drawn) [Decaprenyl phytylacetate], the inhibition in vivo at 100 mg/kg in data set [1] fell in the range of 40 to 60%. The “Curative effect (curative ratio)” value in data set [2] is on record as “++ (25%-40%)”. The 50% lethal dose (LD50) in data set [3] (Table 2) and in data set [4] (Table 1) was over 5000 mg/kg throughout.

For the molecule `CC(C)=CCCC(C)=CCCC(=O)Oc1c(C)c(C)c2c(c1C)CCC(C)(CCCC(C)CCCC(C)CCCC(C)C)O2` (stereo not drawn) [α-Tocopheryl geranylacetate], the inhibition in vivo at 100 mg/kg in data set [1] lay within 40 to 60%. In addition, in data set [2], the “Curative effect (curative ratio)” value was “+ (10%-25%)”. Moreover, the LD50 in data set [3] (Table 2) and in data set [4] (Table 1) was over 4000 mg/kg each time.

As for `C/C(=C\CCC(=O)O)CCC[C@H](C)CCC[C@H](C)CCCC(C)C` [Phytylacetic acid], in data set [1], the inhibition in vivo at 100 mg/kg fell in the range of 10 to 40%. Further, the “Curative effect (curative ratio)” value in data set [2] was “+ (10%-25%)”. Further, the LD50 in data set [3] (Table 2) and in data set [4] (Table 1) was over 5000 mg/kg throughout.

Consider `CCCCCCCC/C=C\CCCCCCCC(=O)OCC=C(C)CCC=C(C)CCC=C(C)CCC=C(C)CCC=C(C)CCC=C(C)CCC=C(C)CCC=C(C)CCC=C(C)CCC=C(C)C` [Decaprenyl oleate], for which, in data set [1], the inhibition in vivo at 100 mg/kg was 40 to 60%. Further, the “Curative effect (curative ratio)” value in data set [2] is given as “++ (25%-40%)”. In addition, the median lethal dose (LD50) in data set [3] (Table 2) and in data set [4] (Table 1) was over 5000 mg/kg each time.

Consider `CC(C)=CCCC(C)=CCCC(C)=CCCC(C)=CCCC(C)=CCCC(C)=CCCC(C)=CCCC(C)=CCCC(C)=CCCC(C)=CCCC(=O)OCC=C(C)CCC=C(C)CCC=C(C)CCC=C(C)CCC=C(C)CCC=C(C)CCC=C(C)CCC=C(C)CCC=C(C)CCC=C(C)C` [Decaprenyl decaprenylacetate], for which the “Curative effect (curative ratio)” value in data set [2] is listed as “+ (10%-25%)”. This molecule gave a median lethal dose (LD50) in data set [4] (Table 2) of over 5000 mg/kg.

In the case of `CCCCCCCC/C=C/CCCCCCCCCCCC(=O)OC/C=C(\C)CCC[C@H](C)CCC[C@H](C)CCCC(C)C` [Phytyl brassidate], the inhibition in vivo at 100 mg/kg in data set [1] was 10 to 40%. Moreover, the “Curative effect (curative ratio)” value in data set [2] is “++ (25%-40%)”. The LD50 in data set [3] (Table 2) and in data set [4] (Table 1) was over 4000 mg/kg each time.

Consider `CC(=CCCC(=O)Oc1c(C)c(C)c2c(c1C)CCC(C)(CCCC(C)CCCC(C)CCCC(C)C)O2)CCCC(C)CCCC(C)CCCC(C)C` (stereo not drawn) [α-Tocopheryl phytylacetate], for which the inhibition in vivo at 100 mg/kg in data set [1] was 10 to 40%. Besides, the “Curative effect (curative ratio)” value in data set [2] is “+++ (40%-)”. Also, the LD50 in data set [3] (Table 2) and in data set [4] (Table 1) was over 4000 mg/kg each time.

For the molecule `CC(C)=CCCC(C)=CCCC(C)=CCCC(=O)OCC=C(C)CCC=C(C)C` [Gefarnate, 3,7-dimethyl-2,6-octadienyl-5,9,13-trimethyl-4,8,12-tetradecatrienoate, reference compound], the inhibition in vivo at 100 mg/kg in data set [1] lay in the range of 10 to 40%. Also, in data set [2], the “Curative effect (curative ratio)” value is given as “± (-10%)”.

Turning to `CC(C)=CCC/C(C)=C/CC/C(C)=C/CC/C(C)=C/CC/C(C)=C/CC/C(C)=C/CC/C(C)=C/CC/C(C)=C/CC/C(C)=C/CO` [Solanesol], the inhibition in vivo at 100 mg/kg in data set [1] lay in the range of 10 to 40%. In addition, the “Curative effect (curative ratio)” value in data set [2] was “++ (25%-40%)”. Besides, the LD50 in data set [3] (Table 1) and in data set [4] (Table 2) was over 4000 mg/kg throughout.

Consider `CC(C)=CCC/C(C)=C/CCC(=O)OC/C=C(\C)CCC[C@H](C)CCC[C@H](C)CCCC(C)C` [Phytyl geranylacetate], for which the inhibition in vivo at 100 mg/kg in data set [1] fell in the range of 10 to 40%. Moreover, the LD50 in data set [3] (Table 1) was over 5000 mg/kg.

As for `C/C(=C\CCC(=O)OC(C)C)CCC[C@H](C)CCC[C@H](C)CCCC(C)C` [Isopropyl phytylacetate], the inhibition in vivo at 100 mg/kg in data set [1] was in the range of 10 to 40%. The LD50 in data set [3] (Table 1) is over 5000 mg/kg.

As to `CC(C)=CCCC(C)CCCC(=O)Oc1c(C)c(C)c2c(c1C)CCC(C)(CCCC(C)CCCC(C)CCCC(C)C)O2` (stereo not drawn) [α-Tocopheryl citronellylacetate], in data set [1], the inhibition in vivo at 100 mg/kg is over 60%. Besides, the LD50 in data set [3] (Table 1) is over 4000 mg/kg.

As for `CC(C)=CCCC(C)=CCCC(C)=CCCC(C)=CCCC(C)=CCCC(C)=CCCC(C)=CCCC(C)=CCCC(C)=CCOC(=O)CCC=C(C)CCCC(C)CCCC(C)CCCC(C)C` (stereo not drawn) [Solanesyl phytylacetate], the inhibition in vivo at 100 mg/kg in data set [1] was 10 to 40%. For the same molecule, the LD50 in data set [3] (Table 1) was over 4000 mg/kg.

Turning to `CC(C)=CCCC(C)=CCCC(C)=CCCC(C)=CCCC(C)=CCCC(C)=CCCC(C)=CCCC(C)=CCCC(C)=CCCC(C)=CCCC(=O)Oc1c(C)c(C)c2c(c1C)CCC(C)(CCCC(C)CCCC(C)CCCC(C)C)O2` (stereo not drawn) [α-Tocopheryl decaprenylacetate], the inhibition in vivo at 100 mg/kg in data set [1] lay in the range of 10 to 40%. Also, in data set [3] (Table 1), the LD50 is over 4000 mg/kg.

For the molecule `CCCCCCCCCCCC(=O)OC/C=C(\C)CCC[C@H](C)CCC[C@H](C)CCCC(C)C` [Phytyl laurate], in data set [1], the inhibition in vivo at 100 mg/kg lay within 40 to 60%. The molecule also showed an LD50 in data set [3] (Table 1) of over 5000 mg/kg.

The record behind these values is patent publication US4642314A, “Antiulcer compounds” (Nisshin Flour Milling Co., Ltd., priority 1984, dated 1987).
